Two molecules from patent US20240131032A1, “AN ACTIVITY-GUIDED MAP OF ELECTROPHILE-CYSTEINE INTERACTIONS IN PRIMARY HUMAN IMMUNE CELLS” (The Scripps Research Institute, priority 2019, published 2024) can be followed below.

This assay has as its system NuRD complex. The experiment in a line: Expression-based proteomics (TMT-exp) of compound-treated T cells, NuRD complex. Conditions: BPK-25 10 μM, 24 h; for decrease in GATAD2B, MBD2, MBD3, and MTA2 (NuRD complex proteins): BPK-21 20 μM, EV-3 10 μM, DMF 50 μM. The format is cell-based, human. The protocol:
FIG. 7B is a scatter plot representation of protein abundance changes caused by BPK-25 (10 μM, 24 h) in two independent replicate experiments, with decreases in NuRD complex components highlighted in red. FIG. 7C is a heatmap of top proteins with decreased abundance in BPK-25-treated T cells showing that the subset of these proteins in the NuRD complex (asterisks) were largely unaltered by other active compounds and blocked in their degradation by co-treatment with the proteasome inhibitor MG132. […] FIG. 7E is a bar graph […] showing time-dependent reductions in NuRD complex members in human T cells treated with BPK-25 (10 μM). Left, representative western blots. Right, quantification of changes in protein. […] FIG. 7G is a heat map showing the changes in cysteine reactivity for NuRD complex members in human T cells treated with BPK-25 and other active compounds.
Freshly isolated T cells (1.6×10^7 cells, 2×10^6 cells/mL in RPMI media) were treated with compound or DMSO for 24 h, pelleted (600 g, 5 min), and washed with PBS (1×10 mL). The cells were then transferred to an Eppendorf tube in additional PBS (1 mL), pelleted (600 g, 5 min), flash frozen, and kept at −80° C. until further analysis. On the first day of the whole proteome TMT protocol, the cells were thawed on ice and lysed in lysis buffer (150 μL, 1 tablet of Roche complete, mini, EDTA-free Protease Inhibitor Cocktail dissolved in 10 mL of PBS) using a probe sonicator (2×8 pulses). Protein concentration was adjusted to 2.0 mg/mL and the samples (100 μL) were transferred to new Eppendorf tubes (1.5 mL) containing urea (48 mg/tube, final urea concentration: 8 M). DTT (5 μL, 200 mM fresh stock in H2O, final DTT concentration: 10 mM) was then added to the tubes and the samples were incubated at 65° C. for 15 min. Following this incubation, iodoacetamide (5 μL, 400 mM fresh stock in H2O, final IA concentration: 20 mM) was added and the samples were incubated in the dark at 37° C. with shaking for 30 min. Ice-cold MeOH (600 μL), CHCl3 (200 μL), and H2O (500 μL) were then added, the mixture was vortexed and centrifuged (10,000 g, 10 min, 4° C.) to afford a protein disc at the interface of CHCl3 and aqueous layers. The top layer was aspirated without perturbing the disk, additional MeOH (600 μL) was added and the proteins were pelleted (10,000 g, 10 min, 4° C.) and used in the next step or stored at −80° C. overnight.
The resulting protein pellets were resuspended in EPPS buffer (160 μL, 200 mM, pH 8) using a probe sonicator (2×6 pulses). […]
The sample became clear after the overnight digestion. At this point, peptide concentration was determined using microBCA assay (Thermo Scientific) according to manufacturer's instructions. […]

Turning to `C=CC(=O)N(Cc1cccc(Cl)n1)c1ccc(C(=O)Nc2ccccc2)nc1` [BPK-25], the “reduced abundance of additional NuRD complex members” value is 25-50%; the “decrease in GATAD2B, MBD2, MBD3, and MTA2 (NuRD complex proteins)” value was > 50%.

Regarding `COC(=O)/C=C/C(=O)OC` [DMF, reference compound], the “decrease in GATAD2B, MBD2, MBD3, and MTA2 (NuRD complex proteins)” value is on record as “not leading to NuRD complex degradation”.
